Assay [1] has as its target KAT7+JADE1+EAF6+ING5 4 protein complex (Homo sapiens (Human), UniProt O95251). The experiment in a line: KAT7 JADE1 assay (SAMDI-MS acetylation of H3 1-21 peptide). Format: biochemical. The following applies: Morrison equation fit; replicate number in parentheses; read-out: KAT7 JADE1 Ki (nM) (replicate number).
The target in a further assay is KAT6A Full length enzyme (Homo sapiens (Human), UniProt Q92794). As to the kind of experiment: KAT6A assay (SAMDI-MS acetylation of H3 1-21 peptide). Format: biochemical. The following applies: Morrison equation fit; replicate number in parentheses; read-out: KAT6A Ki (nM) (replicate number).
KAT6A Full length enzyme, sequence (Q92794 other isoform, or with tags, fused parts or gaps): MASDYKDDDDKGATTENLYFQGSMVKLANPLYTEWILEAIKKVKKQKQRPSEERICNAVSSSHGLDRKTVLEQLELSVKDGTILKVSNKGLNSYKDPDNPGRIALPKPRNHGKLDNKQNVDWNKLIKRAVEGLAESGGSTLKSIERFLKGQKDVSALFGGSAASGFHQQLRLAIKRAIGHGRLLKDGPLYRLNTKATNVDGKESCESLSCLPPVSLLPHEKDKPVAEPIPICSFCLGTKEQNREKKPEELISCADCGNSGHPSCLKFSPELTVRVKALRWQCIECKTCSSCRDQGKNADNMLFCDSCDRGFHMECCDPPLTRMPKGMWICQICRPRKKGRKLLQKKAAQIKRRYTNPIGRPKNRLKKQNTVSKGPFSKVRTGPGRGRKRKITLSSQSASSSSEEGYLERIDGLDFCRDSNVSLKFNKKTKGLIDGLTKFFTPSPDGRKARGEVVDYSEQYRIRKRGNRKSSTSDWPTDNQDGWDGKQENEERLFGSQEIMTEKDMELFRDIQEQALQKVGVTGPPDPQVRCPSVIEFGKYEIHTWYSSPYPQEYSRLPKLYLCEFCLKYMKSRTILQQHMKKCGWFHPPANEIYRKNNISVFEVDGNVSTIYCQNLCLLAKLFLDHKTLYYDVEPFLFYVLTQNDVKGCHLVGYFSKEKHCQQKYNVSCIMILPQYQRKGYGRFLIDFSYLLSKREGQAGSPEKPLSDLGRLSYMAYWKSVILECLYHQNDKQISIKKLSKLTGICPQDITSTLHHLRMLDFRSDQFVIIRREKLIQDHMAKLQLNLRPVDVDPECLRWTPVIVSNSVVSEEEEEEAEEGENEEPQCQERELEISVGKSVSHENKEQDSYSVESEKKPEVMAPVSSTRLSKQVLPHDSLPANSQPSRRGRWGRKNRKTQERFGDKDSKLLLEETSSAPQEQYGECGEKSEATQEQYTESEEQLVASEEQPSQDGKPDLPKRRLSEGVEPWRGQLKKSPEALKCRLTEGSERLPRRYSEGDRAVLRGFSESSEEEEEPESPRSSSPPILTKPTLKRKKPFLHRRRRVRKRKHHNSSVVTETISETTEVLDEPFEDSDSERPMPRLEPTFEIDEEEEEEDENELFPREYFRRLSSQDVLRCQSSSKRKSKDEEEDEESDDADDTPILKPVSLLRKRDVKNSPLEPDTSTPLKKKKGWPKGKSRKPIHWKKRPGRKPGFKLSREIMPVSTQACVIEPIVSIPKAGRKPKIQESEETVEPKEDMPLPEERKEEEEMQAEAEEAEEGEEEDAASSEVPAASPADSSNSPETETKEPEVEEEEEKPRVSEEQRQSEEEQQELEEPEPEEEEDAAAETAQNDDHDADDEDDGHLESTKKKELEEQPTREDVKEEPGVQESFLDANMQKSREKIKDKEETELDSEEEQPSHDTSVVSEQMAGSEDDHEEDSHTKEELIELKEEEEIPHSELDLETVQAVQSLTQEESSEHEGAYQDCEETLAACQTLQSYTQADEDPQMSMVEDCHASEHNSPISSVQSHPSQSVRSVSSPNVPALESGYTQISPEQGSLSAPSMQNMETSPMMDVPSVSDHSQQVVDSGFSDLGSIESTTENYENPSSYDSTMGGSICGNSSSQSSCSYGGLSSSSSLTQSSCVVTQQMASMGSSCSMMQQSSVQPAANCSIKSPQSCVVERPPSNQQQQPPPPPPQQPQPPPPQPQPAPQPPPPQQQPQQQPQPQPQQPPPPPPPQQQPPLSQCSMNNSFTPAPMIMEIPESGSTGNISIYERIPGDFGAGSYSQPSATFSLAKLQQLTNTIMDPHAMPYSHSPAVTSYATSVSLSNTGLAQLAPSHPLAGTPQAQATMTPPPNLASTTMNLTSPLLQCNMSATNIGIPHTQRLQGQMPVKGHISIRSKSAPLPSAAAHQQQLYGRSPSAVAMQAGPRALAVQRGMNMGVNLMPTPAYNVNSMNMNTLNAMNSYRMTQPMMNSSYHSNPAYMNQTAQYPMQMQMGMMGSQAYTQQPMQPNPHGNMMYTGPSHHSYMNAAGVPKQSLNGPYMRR

Broadly, the Ki is the dissociation constant of the complex between target and ligand, obtained from inhibition or displacement. For `COc1cc2c(NS(=O)(=O)c3ccccc3)noc2cc1Nc1ccn(C)n1` [Example 21, N-{5-methoxy-6-[(1-methyl-1H-pyrazol-3-yl)amino]-1,2-benzoxazol-3-yl}benzenesulfonamide], the values for the Ki (in assay [1]; at KAT6A Full length enzyme) were 625 nM and 7.9 nM, respectively.

On to `COc1cc2c(NS(=O)(=O)c3c(OC)cccc3OC)noc2cc1Nc1noc(C)n1` [Example 37, 2,6-dimethoxy-N-{5-methoxy-6-[(5-methyl-1,2,4-oxadiazol-3-yl)amino]-1,2-benzoxazol-3-yl}benzene-1-sulfonamide], for which the results for the Ki (in assay [1]; at KAT6A Full length enzyme) were above 2340 nM and 15.9 nM, respectively.

In the case of `COc1cc2c(NS(=O)(=O)c3c(OC)cccc3OC)noc2cc1Nc1cc(C)nn1C` [Example 38, N-{6-[(1,3-dimethyl-1H-pyrazol-5-yl)amino]-5-methoxy-1,2-benzoxazol-3-yl}-2,6-dimethoxybenzene-1-sulfonamide], the values for the inhibition constant Ki (in assay [1]; on KAT6A Full length enzyme) were above 12500 nM and 60.4 nM, respectively.

Regarding `CCc1nc(Nc2cc3onc(NS(=O)(=O)c4c(OC)cccc4OC)c3cc2OC)no1` [Example 43, N-{6-[(5-ethyl-1,2,4-oxadiazol-3-yl)amino]-5-methoxy-1,2-benzoxazol-3-yl}-2,6-dimethoxybenzene-1-sulfonamide], the figures for the Ki (in assay [1]; at KAT6A Full length enzyme) were above 2340 nM and 55.5 nM, respectively.

As for `COc1cc2c(NS(=O)(=O)c3c(OC)cccc3OC)noc2cc1Nc1[nH]nc(C)c1C#N` [Example 45, N-{6-[(4-cyano-3-methyl-1H-pyrazol-5-yl)amino]-5-methoxy-1,2-benzoxazol-3-yl}-2,6-dimethoxybenzene-1-sulfonamide], the inhibition constant Ki was found to be 804 nM in assay [1] and 2.3 nM at KAT6A Full length enzyme.

As to `COc1cc2c(NS(=O)(=O)c3c(OC)cccc3OC)noc2cc1Nc1[nH]nc2c1CNC2` [Example 49, 2,6-dimethoxy-N-{5-methoxy-6-[(2,4,5,6-tetrahydropyrrolo[3,4-c]pyrazol-3-yl)amino]-1,2-benzoxazol-3-yl}benzene-1-sulfonamide], the Ki is above 2340 nM in assay [1] and 4 nM at KAT6A Full length enzyme.

For `COc1cc2c(NS(=O)(=O)c3c(OC)cccc3OC)noc2cc1Nc1cc(C(C)C)nn1C` [Example 51, 2,6-dimethoxy-N-(5-methoxy-6-{[1-methyl-3-(propan-2-yl)-1H-pyrazol-5-yl]amino}-1,2-benzoxazol-3-yl)benzene-1-sulfonamide], the Ki in assay [1] is above 4990 nM; on KAT6A Full length enzyme, above 377 nM.

Regarding `COc1cc2c(NS(=O)(=O)c3c(OC)cccc3OC)noc2cc1Nc1cc(C)nn1C(C)C` [Example 52, 2,6-dimethoxy-N-(5-methoxy-6-{[3-methyl-1-(propan-2-yl)-1H-pyrazol-5-yl]amino}-1,2-benzoxazol-3-yl)benzene-1-sulfonamide], the Ki in assay [1] was above 12500 nM; at KAT6A Full length enzyme, 73.5 nM.

On to `COc1cc2c(NS(=O)(=O)c3c(OC)cccc3OC)noc2cc1Nc1ccn(C(C)C)n1` [Example 53, 2,6-dimethoxy-N-(5-methoxy-6-{[1-(propan-2-yl)-1H-pyrazol-3-yl]amino}-1,2-benzoxazol-3-yl)benzene-1-sulfonamide], for which the Ki in assay [1] stood at 441 nM; at KAT6A Full length enzyme, 19.8 nM.

As for `COc1cc2c(NS(=O)(=O)c3c(OC)cccc3OC)noc2cc1Nc1cc(C(=O)O)n[nH]1` [Example 54, 5-({3-[(2,6-dimethoxybenzene-1-sulfonyl)amino]-5-methoxy-1,2-benzoxazol-6-yl}amino)-1H-pyrazole-3-carboxylic acid], the inhibitory constant (Ki) was above 2340 nM in assay [1] and 2 nM at KAT6A Full length enzyme.

On to `COc1cc2c(NS(=O)(=O)c3c(OC)cccc3OC)noc2cc1Nc1[nH]nc(C)c1C(N)=O` [Example 57, 5-({3-[(2,6-dimethoxybenzene-1-sulfonyl)amino]-5-methoxy-1,2-benzoxazol-6-yl}amino)-3-methyl-1H-pyrazole-4-carboxamide], for which the Ki was above 2340 nM in assay [1] and 6.2 nM at KAT6A Full length enzyme.

With `COc1cc2c(NS(=O)(=O)c3c(OC)cccc3OC)noc2cc1Nc1c(C(N)=O)c(C)nn1C` [Example 58, 5-({3-[(2,6-dimethoxybenzene-1-sulfonyl)amino]-5-methoxy-1,2-benzoxazol-6-yl}amino)-1,3-dimethyl-1H-pyrazole-4-carboxamide], the results for the Ki (in assay [1]; at KAT6A Full length enzyme) were above 12500 nM and 5.7 nM, respectively.

As to `COCc1cc(Nc2cc3onc(NS(=O)(=O)c4c(OC)cccc4OC)c3cc2OC)n(C)n1` [Example 60, 2,6-dimethoxy-N-(5-methoxy-6-{[3-(methoxymethyl)-1-methyl-1H-pyrazol-5-yl]amino}-1,2-benzoxazol-3-yl)benzene-1-sulfonamide], the Ki is above 12500 nM in assay [1] and above 377 nM at KAT6A Full length enzyme.

For the compound `COc1cc2c(NS(=O)(=O)c3c(OC)cccc3OC)noc2cc1Nc1nc[nH]n1` [Example 61, 2,6-dimethoxy-N-{5-methoxy-6-[(1H-1,2,4-triazol-3-yl)amino]-1,2-benzoxazol-3-yl}benzene-1-sulfonamide], the Ki is 54.7 nM in assay [1] and 0.2 nM on KAT6A Full length enzyme.

On to `COCc1cc(Nc2cc3onc(NS(=O)(=O)c4c(OC)cccc4OC)c3cc2OC)[nH]n1` [Example 91, 2,6-dimethoxy-N-(5-methoxy-6-{[3-(methoxymethyl)-1H-pyrazol-5-yl]amino}-1,2-benzoxazol-3-yl)benzene-1-sulfonamide], for which the figures for the Ki (in assay [1]; on KAT6A Full length enzyme) were 802 nM and 2.3 nM, respectively.

For `COc1cc2c(NS(=O)(=O)c3c(OC)cccc3OC)noc2cc1Nc1cc(C(F)(F)F)n[nH]1` [Example 93, 2,6-dimethoxy-N-(5-methoxy-6-{[3-(trifluoromethyl)-1H-pyrazol-5-yl]amino}-1,2-benzoxazol-3-yl)benzene-1-sulfonamide], the results for the Ki (in assay [1]; on KAT6A Full length enzyme) were 729 nM and 31.2 nM, respectively.

As to `CCOc1cc(C)c(F)cc1S(=O)(=O)Nc1noc2cc(Nc3n[nH]cc3F)c(OC)cc12` [Example 139, 2-Ethoxy-5-fluoro-N-{6-[(4-fluoro-1 H-pyrazol-3-yl)amino]-5-methoxy-1,2-benzoxazol-3-yl}-4-methylbenzene-1-sulfonamide], the Ki in assay [1] worked out at 128 nM; at KAT6A Full length enzyme, 0.1 nM.

For `COc1cc2c(NS(=O)(=O)c3c(OC)cc(C4CN(C)CCC4(F)F)cc3OC)noc2cc1Nc1cc(C2CC2)[nH]n1` (stereo not shown) [Example 177, N-{6-[(5-cyclopropyl-1 H-pyrazol-3-yl)amino]-5-methoxy-1,2-benzoxazol-3-yl}-4-[4,4-difluoro-1-(^2H3)methylpiperidin-3-yl]-2,6-dimethoxybenzene-1-sulfonamide], the Ki in assay [1] came to 0.2 nM; at KAT6A Full length enzyme it was 0.1 nM.

On to `COc1cc2c(NS(=O)(=O)c3c(OC)cc(C4C[C@H](F)CN4C)cc3OC)noc2cc1Nc1cc(C2CC2)n[nH]1` (stereo partly drawn) [Example 181, N-{6-[(3-cyclopropyl-1 H-pyrazol-5-yl)amino]-5-methoxy-1,2-benzoxazol-3-yl}-4-[(4S)-4-fluoro-1-methylpyrrolidin-2-yl]-2,6-dimethoxybenzene-1-sulfonamide], for which the Ki in assay [1] came out at 6.2 nM; at KAT6A Full length enzyme, 2 nM.

Consider `COc1cc2c(NS(=O)(=O)c3c(OC)cc(C4C[C@H](C)CN4C)cc3OC)noc2cc1Nc1cc(C2CC2)n[nH]1` (stereo partly drawn) [Example 182, N-{6-[(3-cyclopropyl-1H-pyrazol-5-yl)amino]-5-methoxy-1,2-benzoxazol-3-yl}-4-[(4S)-1,4-dimethylpyrrolidin-2-yl]-2,6-dimethoxybenzene-1-sulfonamide], for which the inhibitory constant (Ki) in assay [1] worked out at 6.4 nM; at KAT6A Full length enzyme it was 0.8 nM.

Regarding `COc1cc2c(NS(=O)(=O)c3c(OC)cc([C@@H]4CCCN4C)cc3OC)noc2cc1Nc1cc(C2CC2)n[nH]1` [Example 189], the Ki in assay [1] turned out to be 20.8 nM; on KAT6A Full length enzyme it was 3.7 nM.

Regarding `COc1cc2c(NS(=O)(=O)c3c(OC)cc(C4CC(F)CCN4C)cc3OC)noc2cc1Nc1cc(C2CC2)[nH]n1` (stereo not drawn) [Example 192, N-{6-[(5-cyclopropyl-1 H-pyrazol-3-yl)amino]-5-methoxy-1,2-benzoxazol-3-yl}-4-trans(4-fluoro-1-methylpiperidin-2-yl)-2,6-dimethoxybenzene-1-sulfonamide], the Ki worked out at 22.2 nM in assay [1] and 2.4 nM at KAT6A Full length enzyme.

As to `COc1cc2c(NS(=O)(=O)c3c(OC)cc(C4CC(F)CCN4C)cc3OC)noc2cc1Nc1cc(C2CC2)[nH]n1` (stereo not drawn) [Example 193, N-{6-[(5-cyclopropyl-1 H-pyrazol-3-yl)amino]-5-methoxy-1,2-benzoxazol-3-yl}-4-trans(4-fluoro-1-methylpiperidin-2-yl)-2,6-dimethoxybenzene-1-sulfonamide], the inhibition constant (Ki) came to 12 nM in assay [1] and 1.4 nM on KAT6A Full length enzyme.

As for `COc1cc2c(NS(=O)(=O)c3c(OC)cc(CN4CCC(OC)CC4)cc3OC)noc2cc1Nc1cc(C2CC2)n[nH]1` [Example 194, N-{6-[(3-cyclopropyl-1 H-pyrazol-5-yl)amino]-5-methoxy-1,2-benzoxazol-3-yl}-2,6-dimethoxy-4-[(4-methoxypiperidin-1-yl)methyl]benzene-1-sulfonamide], the results for the Ki (in assay [1]; at KAT6A Full length enzyme) were 6.3 nM and 1.7 nM, respectively.

With `COc1cc2c(NS(=O)(=O)c3c(OC)cc(CN4CCC[C@H](C)C4)cc3OC)noc2cc1Nc1cc(C2CC2)n[nH]1` [Example 195, N-{6-[(3-cyclopropyl-1H-pyrazol-5-yl)amino]-5-methoxy-1,2-benzoxazol-3-yl}-2,6-dimethoxy-4-{[(3S)-3-methylpiperidin-1-yl]methyl}benzene-1-sulfonamide], the Ki in assay [1] was 18.9 nM; at KAT6A Full length enzyme, 2.5 nM.

As to `COc1cc2c(NS(=O)(=O)c3c(OC)cc(CN4CCC(F)(F)C4)cc3OC)noc2cc1Nc1cc(C2CC2)n[nH]1` [Example 196, N-{6-[(3-cyclopropyl-1H-pyrazol-5-yl)amino]-5-methoxy-1,2-benzoxazol-3-yl}-4-[(3,3-difluoropyrrolidin-1-yl)methyl]-2,6-dimethoxybenzene-1-sulfonamide], the Ki was determined as 4 nM in assay [1] and 0.9 nM at KAT6A Full length enzyme.
